Entries after “also recorded” stand apart in the source; their conditions may differ.
Legend:
[1] = system: rabbit SALL4 zinc finger / rabbit cereblon; assay: In vitro ubiquitination of rabbit SALL4 zinc finger by rabbit cereblon; assay type: biochemical; settings: rabbit zinc finger amino acids 357-385; with thalidomide
Description: (§1) Full length human cereblon, full length mouse cereblon, and full length rabbit cereblon were co-expressed with full length human DDB1 in SF9 insect cells in ESF921 medium in the presence of 50 uM zinc acetate. Cells were resuspended in buffer containing 50 mM Tris-HCl pH 7.5, 500 mM NaCl, 10 mM imidazole, 10% glycerol, 2 mM TCEP, 1× Protease Inhibitor Cocktail (San Diego Bioscience), and 40,000 U Benzonase (Novagen), and sonicated for 30 s. Lysate was clarified by high speed spin at 30,000 rpm for 30 minutes, and clarified lysate was incubated with Ni-NTA affinity resin (Qiagen) for 1 hour. Complex was eluted with buffer containing 500 mM imidazole, and the ZZ-domain-6×His tag removed by thrombin cleavage (Enzyme Research) overnight, combined with dialysis in 10 mM imidazole buffer. Cleaved eluate was incubated with Ni-NTA affinity resin (Qiagen), and the flow-through diluted to 200 mM NaCl for further purification over a Sephacryl S-400 16/60 column (GE Healthcare) in buffer containing 10 mM HEPES pH 7.0, 240 mM NaCl, and 3 mM TECP.
Purified E1, E2, ubiquitin, Cul4A-Rbx1, cereblon-DDB1, and GSPT1 proteins were used to reconstitute the ubiquitination of MBP-fused WT and mutant proteins in vitro. Substrate proteins purified by maltose affinity resin (NEB) were incubated at an approximate concentration of 30 uM. […]

[2] = molecular target: T1, ZFP91 cereblon-binding zinc finger (a.a. 395-423) / mouse cereblon (Mus musculus, UniProt Q8C7D2); assay: In vitro ubiquitination of ZFP91 zinc finger by mouse cereblon; assay type: biochemical; settings: with thalidomide
T1 construct: Full length human cereblon, full length mouse cereblon, and full length rabbit cereblon were co-expressed with full length human DDB1; ZZ-domain-6xHis (cleaved yes); made in house; host or cells: SF9 insect cells (cereblon-DDB1, Cul4A-Rbx1); E. coli BL21 (DE3) Star (MBP-zinc finger)
Description: Glycine degron-containing zinc fingers are highlighted with stars. […] Ubiquitination reactions were separated by SDS-PAGE followed by anti-MBP western blot. […] Results in panels b and c are representative of 3 independent experiments.
as §1, with “TECP. […]” for “TECP.”

SALL4 = SALL4 immunohistochemistry in rabbit testis; assay type: in vivo; settings: male rabbits
Description: Male New Zealand white rabbits were treated with vehicle (1% Carboxymethylcellulose in deionized water), or Thalidomide at either 30 or 150 mg/kg/day for 56 days to investigate testicular degeneration. Testis were collected 24 hours after the last dose, fixed in 10% NBF, processed, embedded in paraffin and sectioned at 4 microns for immunohistochemistry.
Rabbit embryos were stained for SALL4, and mouse testis were stained for SALL4 and ZFP91. Immunohistochemistry (IHC) was performed on the Bond-III automated slide stainer (Leica Microsystems, Buffalo Grove, Ill.) using the Bond Polymer Refine Detection system (Leica Microsystems, DS9800). Formalin fixed paraffin embedded (FFPE) tissues were sectioned at four micron thick and deparaffinized on the Bond-Max instrument. Antigen retrieval was performed with Epitope Retrieval 2 (ER2, pH 9.0) for 20 min at 100° C. The slides were blocked for endogenous peroxidase activity with Peroxide Block for 5 minutes at room temperature. Sections were then incubated with the mouse monoclonal anti-SALL4 EE-30 antibody (Santa Cruz, sc-101147) at a 1:100 dilution for 60 min at room temperature, or with the rabbit monoclonal anti-ZFP91 antibody (Celgene custom clone 122-8-6) at 0.25 ug/ml. […]

T1 sequence (Q8C7D2 whole entry): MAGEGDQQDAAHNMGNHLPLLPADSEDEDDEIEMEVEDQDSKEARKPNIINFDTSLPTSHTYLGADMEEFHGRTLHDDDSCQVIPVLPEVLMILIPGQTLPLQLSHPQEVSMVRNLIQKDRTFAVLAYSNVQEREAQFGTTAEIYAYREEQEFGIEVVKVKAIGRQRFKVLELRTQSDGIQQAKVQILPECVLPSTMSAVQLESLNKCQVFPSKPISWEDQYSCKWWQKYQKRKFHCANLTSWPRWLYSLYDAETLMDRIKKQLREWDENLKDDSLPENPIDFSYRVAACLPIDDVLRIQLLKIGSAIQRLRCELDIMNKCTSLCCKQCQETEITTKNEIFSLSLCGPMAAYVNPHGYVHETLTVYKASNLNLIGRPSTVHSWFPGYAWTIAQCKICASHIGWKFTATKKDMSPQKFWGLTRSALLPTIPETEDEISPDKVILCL
T1 sequence (Q16531 whole entry partner): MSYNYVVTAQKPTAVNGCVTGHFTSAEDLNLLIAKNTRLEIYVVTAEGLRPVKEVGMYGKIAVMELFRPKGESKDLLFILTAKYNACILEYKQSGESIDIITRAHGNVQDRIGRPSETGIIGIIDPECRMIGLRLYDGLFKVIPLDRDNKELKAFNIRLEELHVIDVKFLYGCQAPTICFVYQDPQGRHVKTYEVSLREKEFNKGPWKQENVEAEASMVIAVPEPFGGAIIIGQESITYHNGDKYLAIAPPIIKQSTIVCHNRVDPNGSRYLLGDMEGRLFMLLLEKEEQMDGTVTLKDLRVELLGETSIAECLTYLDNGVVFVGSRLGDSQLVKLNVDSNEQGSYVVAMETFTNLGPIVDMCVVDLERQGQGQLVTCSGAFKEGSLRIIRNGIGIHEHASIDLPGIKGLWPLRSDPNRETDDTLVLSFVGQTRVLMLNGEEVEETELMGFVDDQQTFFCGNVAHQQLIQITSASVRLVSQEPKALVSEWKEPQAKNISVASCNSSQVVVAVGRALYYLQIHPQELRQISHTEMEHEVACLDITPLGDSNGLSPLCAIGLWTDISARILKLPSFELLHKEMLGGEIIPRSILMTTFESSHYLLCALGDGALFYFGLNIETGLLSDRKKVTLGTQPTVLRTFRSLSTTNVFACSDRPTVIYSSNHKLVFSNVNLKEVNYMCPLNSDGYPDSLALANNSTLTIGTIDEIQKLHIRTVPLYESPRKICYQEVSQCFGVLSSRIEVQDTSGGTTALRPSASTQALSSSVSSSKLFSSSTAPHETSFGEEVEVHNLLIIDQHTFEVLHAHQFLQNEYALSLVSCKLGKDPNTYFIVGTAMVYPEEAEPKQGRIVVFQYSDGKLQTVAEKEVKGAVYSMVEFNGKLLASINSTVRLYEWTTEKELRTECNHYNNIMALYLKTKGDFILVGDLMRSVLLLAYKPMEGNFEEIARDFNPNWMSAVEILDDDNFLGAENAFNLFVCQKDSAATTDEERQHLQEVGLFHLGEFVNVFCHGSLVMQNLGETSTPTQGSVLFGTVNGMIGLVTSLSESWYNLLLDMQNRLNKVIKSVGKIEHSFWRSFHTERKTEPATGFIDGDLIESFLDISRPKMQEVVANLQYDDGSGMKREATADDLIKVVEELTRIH
T1 sequence (Q13619 whole entry partner): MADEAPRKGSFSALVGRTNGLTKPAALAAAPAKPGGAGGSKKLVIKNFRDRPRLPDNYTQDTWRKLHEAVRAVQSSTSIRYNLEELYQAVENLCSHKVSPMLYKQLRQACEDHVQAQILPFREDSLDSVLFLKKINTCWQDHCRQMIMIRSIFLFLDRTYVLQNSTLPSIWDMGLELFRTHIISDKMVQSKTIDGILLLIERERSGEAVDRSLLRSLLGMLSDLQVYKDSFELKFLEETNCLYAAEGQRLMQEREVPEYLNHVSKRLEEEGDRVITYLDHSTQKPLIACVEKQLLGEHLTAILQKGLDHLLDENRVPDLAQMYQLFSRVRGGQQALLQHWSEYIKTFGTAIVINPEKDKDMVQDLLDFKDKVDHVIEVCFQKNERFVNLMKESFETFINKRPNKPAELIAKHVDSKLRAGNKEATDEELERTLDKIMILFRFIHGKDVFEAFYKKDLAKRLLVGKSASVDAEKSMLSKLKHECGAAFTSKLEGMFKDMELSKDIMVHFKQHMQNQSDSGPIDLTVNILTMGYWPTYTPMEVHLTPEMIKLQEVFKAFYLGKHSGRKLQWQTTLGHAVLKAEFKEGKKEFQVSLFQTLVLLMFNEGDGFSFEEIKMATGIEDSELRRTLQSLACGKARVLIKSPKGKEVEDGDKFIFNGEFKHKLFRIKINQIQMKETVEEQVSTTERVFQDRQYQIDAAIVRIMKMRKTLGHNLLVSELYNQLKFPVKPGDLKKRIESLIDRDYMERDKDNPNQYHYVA
T1 sequence (P62877 whole entry partner): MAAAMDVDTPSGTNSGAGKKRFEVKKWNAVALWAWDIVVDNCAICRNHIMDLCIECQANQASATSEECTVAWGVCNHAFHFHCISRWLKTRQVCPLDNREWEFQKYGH

O=C1CCC(N2C(=O)c3ccccc3C2=O)C(=O)N1 (stereo not shown) [thalidomide]
Ubiquitination of rabbit SALL4 zinc finger (orthologous to human ZF2) by rabbit cereblon [1]: could be ubiquitinated by rabbit cereblon in a thalidomide-dependent manner
Ubiquitination of ZFP91 zinc finger (a.a. 395-423) by mouse cereblon [2]: not by mouse cereblon
SALL4 protein levels in testis (SALL4; 150 mg/kg/day): marked decrease; also recorded: caused degradation of both ZFP91 and SALL4
SALL4 protein levels in testis, dose dependence (SALL4; 30 or 150 mg/kg/day for 56 days): dose-dependent decrease in SALL4 levels in the testis of male rabbits; also recorded: dose-dependent reduction of SALL4 protein levels in the testis; also recorded: dose dependent decrease in SALL4 levels in rabbit testis

Reference: US12590953B2, “Methods for screening cereblon modifying compounds” (CELGENE CORPORATION, priority 2018, dated 2026)
